This is an account of results in US5591741A, “Fungicidal spiroheterocyclic derivatives” (American Cyanamid Company, priority 1993, dated 1997).

One experiment deals with Plasmopara viticola. Briefly: Antisporulant activity against vine downy mildew (PVA). Format: in vivo. Conditions: vine leaves, antisporulant foliar spray, 600 ppm, 750 l/ha. The procedure, abridged: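 Cabernet Sauvignon vines (~8 cm) inoculated on lower leaf surfaces with 5×10^4 zoosporangia/ml, held 24 h at 21° C high humidity then 24 h glasshouse. Infected leaves sprayed underside with 600 ppm compound in 1:1 water/acetone, 0.04% Tween 20, 750 l/ha; 96 h glasshouse, 24 h humidity. Sporulating leaf area rated versus control.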

For the next experiment, the system named is Botrytis cinerea. Briefly: Direct protectant activity against broad bean grey mould (BCB). Format: in vivo. Conditions: direct protectant foliar spray, 600 ppm, 4 days. The procedure, abridged: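 Protectant foliar test: lesion coverage assessed 4 days after inoculation and rated relative to untreated or diluent-sprayed plants. Compound applied at 600 ppm to cv The Sutton leaves 24 h before 10^6 conidia/ml suspension; incubation at 22 °C in high humidity.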

Experiment [1] has as its system Pseudocercosporella herpotrichoides. Put plainly: Activity against wheat eyespot in-vitro (PHI). The following applies: 10 ppm, 10 days, 20° C., mycelial growth. The class given is cell-based. The procedure, abridged: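 Mycelial growth was scored after 10 days at 20 °C against untreated or diluent controls. The broth was half-strength potato dextrose, holding 10 ppm test compound (from acetone) and 5×10^4 fragments/ml of the eyespot fungus.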

Another experiment has as its system Leptosphaeria nodorum. Put plainly: Activity against wheat leafspot (LN). Conditions: direct therapeutic foliar spray, 600 ppm, 6-8 days. Format: in vivo. The procedure, abridged:
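Therapeutic foliar spray: compound at 600 ppm applied to single-leaf wheat (cv Norman) 24 h after inoculation with 1.5×10^6 conidia/ml. Disease control scored after 6-8 days at 22° C and 70% humidity as lesions per leaf versus untreated or diluent-sprayed controls.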

For experiment [2], the system named is Erysiphe graminis f.sp. hordei. Put plainly: Direct protectant activity against barley powdery mildew (EGP). Format: in vivo. The following applies: direct protectant foliar spray, 8 days. The procedure, abridged: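 Rating reflects percentage of leaf area with sporulation compared with untreated or diluent-sprayed controls. Protectant spray was applied to single-leaf barley (cv Golden Promise) 24 h before conidia inoculation. Plants were kept at 18 °C and 40% RH throughout, with 8 days of disease development.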

For experiment [3], the system named is Erysiphe graminis f.sp. hordei. Put plainly: Activity against barley powdery mildew, direct therapeutic (EGT). Conditions: direct therapeutic foliar spray, 600 ppm, up to 7 days. Format: in vivo. The procedure, abridged: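 A curative spray at 600 ppm was applied to single-leaf Golden Promise barley inoculated with powdery mildew conidia the previous day. After up to 7 days at 18 °C and 40% humidity, disease control was rated from percent leaf area sporulating relative to untreated or diluent-sprayed controls.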

In another experiment the test system is Alternaria solani. Put plainly: Activity against tomato early blight (AS). Format: in vivo. The following applies: Table VI; tomato seedlings, contact prophylactic foliar spray, 4 days. The procedure, abridged:
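Plants were challenged with A. solani conidia (10^4 spores/ml) 24 h after a protective foliar spray of compound in 50:50 acetone/water plus 0.04% Tween 20. Held humid at 21° C for 4 days, then percent leaf area with lesions was scored as a rating relative to controls.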

The next experiment relates to Pyricularia oryzae. Format: in vivo. Conditions: rice seedlings, direct therapeutic foliar spray, 600 ppm, 4-5 days.
In the next experiment the test system is Venturia inaequalis. Put plainly: Activity against apple scab in-vitro (VII). Format: cell-based. The following applies: 10 ppm, 10 days, 20° C., mycelial growth. The procedure, abridged:
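V. inaequalis propagules (5×10^4/ml, malt agar-grown) were exposed in half-strength PDB to 10 ppm final test compound delivered in acetone. Growth was scored after incubation for 10 days at 20° C, as a rating relative to untreated or diluent-sprayed controls.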

A further experiment relates to Rhizoctonia solani. Briefly: Activity against Rhizoctonia in-vitro (RSI). The class given is cell-based. Conditions: 10 ppm, 10 days, 20° C., mycelial growth. The procedure, abridged: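 Compound at a final 10 ppm (acetone vehicle) in half-strength PDB, inoculated with 5×10^4 fragments/ml of shaken-culture R. solani mycelium. After incubation at 20° C for 10 days, growth scored as a rating versus untreated or diluent-treated controls.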

For a further experiment, the system named is Phytophthora infestans. The class given is in vivo. Conditions: tomato, direct protectant foliar spray.

With `CCCCCCCCCCCCNC1COC2(CCC(C(C)(C)C)CC2)C1` (stereo not shown) [Compound 43], in the experiment on Plasmopara viticola, the “disease control rating PVA” value is 0 (less than 50% disease control). The “disease control rating BCB” value in the experiment with Botrytis cinerea is given as 0 (less than 50% disease control). For the same molecule, the “disease control rating PHI” value in experiment [1] is 0 (less than 50% disease control). For the same molecule, in the experiment on Leptosphaeria nodorum, the “disease control rating LN” value is 2 (greater than 80% disease control). In addition, in experiment [2], the “disease control rating EGP” value is listed as 2 (greater than 80% disease control). Moreover, the “disease control rating EGT” value in experiment [3] is 2 (greater than 80% disease control). In addition, the “disease control rating AS” value with Alternaria solani is given as 0 (less than 50% disease control). Moreover, the “disease control rating PO” value with Pyricularia oryzae was 0 (less than 50% disease control). The “disease control rating VII” value in the experiment on Venturia inaequalis is listed as 2 (greater than 80% disease control). Further, the “disease control rating RSI” value with Rhizoctonia solani was 0 (less than 50% disease control). In addition, in the experiment on Phytophthora infestans, the “disease control rating PIP” value is 0 (less than 50% disease control).
With `CCCCCCCCCCCCCCNC1COC2(CCC(C(C)(C)C)CC2)C1` (stereo not shown) [Compound 44], the “disease control rating PVA” value in the experiment on Plasmopara viticola is given as 0 (less than 50% disease control). Further, the “disease control rating BCB” value with Botrytis cinerea is reported as 0 (less than 50% disease control). In addition, the “disease control rating PHI” value in experiment [1] was 0 (less than 50% disease control). The “disease control rating LN” value in the experiment with Leptosphaeria nodorum is on record as 0 (less than 50% disease control). Besides, the “disease control rating EGP” value in experiment [2] was 2 (greater than 80% disease control). Also, in experiment [3], the “disease control rating EGT” value was 2 (greater than 80% disease control). The “disease control rating AS” value in the experiment on Alternaria solani is 0 (less than 50% disease control). Besides, the “disease control rating PO” value with Pyricularia oryzae was 0 (less than 50% disease control). For the same molecule, the “disease control rating VII” value with Venturia inaequalis is listed as 0 (less than 50% disease control). The “disease control rating RSI” value in the experiment on Rhizoctonia solani is 0 (less than 50% disease control). In addition, the “disease control rating PIP” value in the experiment with Phytophthora infestans is on record as 0 (less than 50% disease control).
Regarding `CCCCCCCCCCCCCCCCNC1COC2(CCC(C(C)(C)C)CC2)C1` (stereo not shown) [Compound 45], the “disease control rating PVA” value in the experiment on Plasmopara viticola was 0 (less than 50% disease control). Further, in the experiment with Botrytis cinerea, the “disease control rating BCB” value is recorded as 0 (less than 50% disease control). In experiment [1], the “disease control rating PHI” value was 0 (less than 50% disease control). Moreover, the “disease control rating LN” value in the experiment with Leptosphaeria nodorum is 0 (less than 50% disease control). Also, the “disease control rating EGP” value in experiment [2] is given as 2 (greater than 80% disease control). For the same molecule, the “disease control rating EGT” value in experiment [3] is on record as 2 (greater than 80% disease control). In addition, in the experiment on Alternaria solani, the “disease control rating AS” value is reported as 0 (less than 50% disease control). The “disease control rating PO” value with Pyricularia oryzae is 0 (less than 50% disease control). The “disease control rating VII” value in the experiment on Venturia inaequalis was 0 (less than 50% disease control). Besides, the “disease control rating RSI” value in the experiment with Rhizoctonia solani was 0 (less than 50% disease control). Moreover, in the experiment on Phytophthora infestans, the “disease control rating PIP” value is given as 0 (less than 50% disease control).
`CCCCCCCCCCCCCCCCCCNC1COC2(CCC(C(C)(C)C)CC2)C1` (stereo not shown) [Compound 46]: the “disease control rating PVA” value with Plasmopara viticola was 0 (less than 50% disease control). Also, the “disease control rating BCB” value in the experiment with Botrytis cinerea is reported as 0 (less than 50% disease control). In addition, the “disease control rating PHI” value in experiment [1] was 0 (less than 50% disease control). Moreover, in the experiment on Leptosphaeria nodorum, the “disease control rating LN” value is 0 (less than 50% disease control). Also, in experiment [2], the “disease control rating EGP” value is on record as 2 (greater than 80% disease control). In addition, the “disease control rating EGT” value in [3] is 2 (greater than 80% disease control). For the same molecule, in the experiment on Alternaria solani, the “disease control rating AS” value was 0 (less than 50% disease control). Further, the “disease control rating PO” value in the experiment on Pyricularia oryzae is reported as 0 (less than 50% disease control). Further, the “disease control rating VII” value in the experiment with Venturia inaequalis is 0 (less than 50% disease control). The “disease control rating RSI” value in the experiment on Rhizoctonia solani is 0 (less than 50% disease control). For the same molecule, the “disease control rating PIP” value in the experiment with Phytophthora infestans was 0 (less than 50% disease control).
As to `CC(C)(C)C1CCC2(CC1)CC(NCc1cccnc1)CO2` (stereo not shown) [Compound 47], the “disease control rating PVA” value in the experiment on Plasmopara viticola is 0 (less than 50% disease control). The “disease control rating BCB” value in the experiment on Botrytis cinerea was 0 (less than 50% disease control). Moreover, the “disease control rating PHI” value in experiment [1] is 0 (less than 50% disease control). Moreover, in the experiment on Leptosphaeria nodorum, the “disease control rating LN” value was 0 (less than 50% disease control). In addition, the “disease control rating EGP” value in experiment [2] is listed as 2 (greater than 80% disease control). The “disease control rating EGT” value in experiment [3] was 2 (greater than 80% disease control). For the same molecule, the “disease control rating AS” value in the experiment on Alternaria solani was 2 (greater than 80% disease control). Moreover, the “disease control rating PO” value in the experiment on Pyricularia oryzae was 0 (less than 50% disease control). In the experiment on Venturia inaequalis, the “disease control rating VII” value was 1 (about 50-80% disease control). Besides, in the experiment on Rhizoctonia solani, the “disease control rating RSI” value was 0 (less than 50% disease control). The “disease control rating PIP” value in the experiment on Phytophthora infestans is on record as 0 (less than 50% disease control).
Turning to `CCCCN(Cc1cccnc1)C1COC2(CCC(C(C)(C)C)CC2)C1` (stereo not shown) [Compound 48], the “disease control rating PVA” value with Plasmopara viticola was 0 (less than 50% disease control). The “disease control rating BCB” value in the experiment on Botrytis cinerea is listed as 0 (less than 50% disease control). Also, the “disease control rating PHI” value in [1] is recorded as 0 (less than 50% disease control). The “disease control rating LN” value in the experiment on Leptosphaeria nodorum is given as 0 (less than 50% disease control). Moreover, the “disease control rating EGP” value in [2] is 2 (greater than 80% disease control). For the same molecule, the “disease control rating EGT” value in [3] was 2 (greater than 80% disease control). Besides, the “disease control rating AS” value in the experiment with Alternaria solani is on record as 2 (greater than 80% disease control). The “disease control rating PO” value with Pyricularia oryzae was 0 (less than 50% disease control). Further, the “disease control rating VII” value in the experiment with Venturia inaequalis was 1 (about 50-80% disease control). The “disease control rating RSI” value in the experiment with Rhizoctonia solani is 0 (less than 50% disease control). The “disease control rating PIP” value in the experiment with Phytophthora infestans is 0 (less than 50% disease control).
As to `CCCCCNC1COC2(CCC(C(C)(C)CC)CC2)C1` (stereo not shown) [Compound 49], the “disease control rating PVA” value in the experiment with Plasmopara viticola was 0 (less than 50% disease control). Also, the “disease control rating BCB” value with Botrytis cinerea is recorded as 0 (less than 50% disease control). Further, the “disease control rating PHI” value in experiment [1] is on record as 2 (greater than 80% disease control). Moreover, in the experiment on Leptosphaeria nodorum, the “disease control rating LN” value was 2 (greater than 80% disease control). For the same molecule, in experiment [2], the “disease control rating EGP” value was 2 (greater than 80% disease control). Besides, the “disease control rating EGT” value in experiment [3] is recorded as 2 (greater than 80% disease control). Also, the “disease control rating AS” value in the experiment on Alternaria solani is 0 (less than 50% disease control). For the same molecule, the “disease control rating PO” value in the experiment on Pyricularia oryzae is listed as 0 (less than 50% disease control). The “disease control rating VII” value in the experiment on Venturia inaequalis is given as 1 (about 50-80% disease control). In addition, the “disease control rating RSI” value in the experiment on Rhizoctonia solani is given as 1 (about 50-80% disease control). Besides, in the experiment on Phytophthora infestans, the “disease control rating PIP” value is 2 (greater than 80% disease control).
Take `CCCCCN(CCCCC)C1COC2(CCC(C(C)(C)CC)CC2)C1` (stereo not shown) [Compound 50]: in the experiment on Plasmopara viticola, the “disease control rating PVA” value is recorded as 0 (less than 50% disease control). In addition, the “disease control rating BCB” value in the experiment on Botrytis cinerea was 0 (less than 50% disease control). In experiment [1], the “disease control rating PHI” value is 0 (less than 50% disease control). Further, the “disease control rating LN” value with Leptosphaeria nodorum is 0 (less than 50% disease control). Moreover, in experiment [2], the “disease control rating EGP” value is reported as 2 (greater than 80% disease control). Also, in experiment [3], the “disease control rating EGT” value was 2 (greater than 80% disease control). In the experiment on Alternaria solani, the “disease control rating AS” value was 0 (less than 50% disease control). Besides, the “disease control rating PO” value with Pyricularia oryzae is 0 (less than 50% disease control). The “disease control rating VII” value in the experiment with Venturia inaequalis is recorded as 1 (about 50-80% disease control). Moreover, in the experiment with Rhizoctonia solani, the “disease control rating RSI” value was 0 (less than 50% disease control). Besides, the “disease control rating PIP” value with Phytophthora infestans was 0 (less than 50% disease control).
